From US9255295B2, “Method for evaluating the sensitizing potential of a test compound” (IMMUNOSEARCH, priority 2010, dated 2016)

Legend:
[1] = system: genes specific for sensitization (BRAK, CTSS, DAPK2, FABP4, HSP27, IL18, HSP90, IL1R2, TPSAB1, CXCR1, DEFB1, DHFR, EHF, IVL, KRT4, MELANA, NGAL, PDZK1IP1, PI3 …); experiment: Expression of the other (non-ARE) sensitization-specific genes in EPISKIN reconstructed skin (quantitative RT-PCR); assay type: cell-based, human; details: for BRAK expression / DHFR expression / HSP90 expression / IL18 expression / KRT4 expression / MELANA expression / PDZK1iP1 expression / SERPINB3 expression: compared to the control
EPISKIN model = experiment: Sensitizing power: sensitizing potential retested at successive dilutions in the EPISKIN model

## CC=Cc1ccc(O)c(OC)c1 [Isoeugenol]
[1]; 0.1%
  BRAK NUMBER OF GENES grade: 0 (if this expression is lower, the grade is 0)
  CTSS expression compared to control: 0.9
  CTSS grade (NUMBER OF GENES): 0 (if this expression is lower, the grade is 0)
  CXCR1 expression compared to control: 0.7
  CXCR1 grade (NUMBER OF GENES): 0 (if this expression is lower, the grade is 0)
  DAPK2 expression compared to control: 1.1
  DAPK2 grade (NUMBER OF GENES): 0 (if this expression is lower, the grade is 0)
  DEFB1 expression compared to control: 1.0
  DEFB1 grade (NUMBER OF GENES): 0 (if this expression is lower, the grade is 0)
  DHFR NUMBER OF GENES grade: 0 (if this expression is lower, the grade is 0)
  EHF expression compared to control: 1.5
  EHF grade (NUMBER OF GENES): 1 (If the expression is greater than 1.3 compared to the control, a grade of 11s given)
  FABP4 expression compared to control: 0.8
  FABP4 grade (NUMBER OF GENES): 0 (if this expression is lower, the grade is 0)
  HSP27 expression compared to control: 1.0
  HSP27 grade (NUMBER OF GENES): 0 (if this expression is lower, the grade is 0)
  HSP90 NUMBER OF GENES grade: 0 (if this expression is lower, the grade is 0)
  IL18 NUMBER OF GENES grade: 0 (if this expression is lower, the grade is 0)
  IVL expression compared to control: 1.3
  IVL grade (NUMBER OF GENES): 1 (If the expression is greater than 1.3 compared to the control, a grade of 11s given)
  KRT4 NUMBER OF GENES grade: 0 (if this expression is lower, the grade is 0)
  MELANA NUMBER OF GENES grade: 0 (if this expression is lower, the grade is 0)
  NGAL expression compared to control: 1.1
  NGAL grade (NUMBER OF GENES): 0 (if this expression is lower, the grade is 0)
  P13 expression compared to control: 1.1
  P13 grade (NUMBER OF GENES): 0 (if this expression is lower, the grade is 0)
  PDZK1iP1 NUMBER OF GENES grade: 0 (if this expression is lower, the grade is 0)
  SENS >1.3 (number of genes): 2
  SERPINB3 NUMBER OF GENES grade: 0 (if this expression is lower, the grade is 0)
  TOTAL SENS (number of genes): 2
  BRAK expression: 0.6
  DHFR expression: 0.8
  HSP90 expression: 0.9
  IL18 expression: 0.6
  KRT4 expression: 1.2
  MELANA expression: 0.9
  PDZK1iP1 expression: 1.0
  SERPINB3 expression: 1.2
[1]; 1%
  BRAK NUMBER OF GENES grade: 0 (if this expression is lower, the grade is 0)
  CTSS expression compared to control: 0.8
  CTSS grade (NUMBER OF GENES): 0 (if this expression is lower, the grade is 0)
  CXCR1 expression compared to control: 1.1
  CXCR1 grade (NUMBER OF GENES): 0 (if this expression is lower, the grade is 0)
  DAPK2 expression compared to control: 0.9
  DAPK2 grade (NUMBER OF GENES): 0 (if this expression is lower, the grade is 0)
  DEFB1 expression compared to control: 1.1
  DEFB1 grade (NUMBER OF GENES): 0 (if this expression is lower, the grade is 0)
  DHFR NUMBER OF GENES grade: 0 (if this expression is lower, the grade is 0)
  EHF expression compared to control: 1.2
  EHF grade (NUMBER OF GENES): 0 (if this expression is lower, the grade is 0)
  FABP4 expression compared to control: 0.9
  FABP4 grade (NUMBER OF GENES): 0 (if this expression is lower, the grade is 0)
  HSP27 expression compared to control: 0.8
  HSP27 grade (NUMBER OF GENES): 0 (if this expression is lower, the grade is 0)
  HSP90 NUMBER OF GENES grade: 1 (If the expression is greater than 1.3 compared to the control, a grade of 11s given)
  IL18 NUMBER OF GENES grade: 0 (if this expression is lower, the grade is 0)
  IVL expression compared to control: 1.4
  IVL grade (NUMBER OF GENES): 1 (If the expression is greater than 1.3 compared to the control, a grade of 11s given)
  KRT4 NUMBER OF GENES grade: 0 (if this expression is lower, the grade is 0)
  MELANA NUMBER OF GENES grade: 1 (If the expression is greater than 1.3 compared to the control, a grade of 11s given)
  NGAL expression compared to control: 1.1
  NGAL grade (NUMBER OF GENES): 0 (if this expression is lower, the grade is 0)
  P13 expression compared to control: 0.9
  P13 grade (NUMBER OF GENES): 0 (if this expression is lower, the grade is 0)
  PDZK1iP1 NUMBER OF GENES grade: 0 (if this expression is lower, the grade is 0)
  SENS >1.3 (number of genes): 5
  SERPINB3 NUMBER OF GENES grade: 0 (if this expression is lower, the grade is 0)
  TOTAL SENS (number of genes): 5
  BRAK expression: 0.9
  DHFR expression: 0.9
  HSP90 expression: 1.3
  IL18 expression: 1.1
  KRT4 expression: 0.8
  MELANA expression: 1.4
  PDZK1iP1 expression: 1.1
  SERPINB3 expression: 1.2
[1]; 10%
  BRAK NUMBER OF GENES grade: 0 (if this expression is lower, the grade is 0)
  CTSS expression compared to control: 1.5
  CTSS grade (NUMBER OF GENES): 1 (If the expression is greater than 1.3 compared to the control, a grade of 11s given)
  CXCR1 expression compared to control: 1.6
  CXCR1 grade (NUMBER OF GENES): 1 (If the expression is greater than 1.3 compared to the control, a grade of 11s given)
  DAPK2 expression compared to control: 0.9
  DAPK2 grade (NUMBER OF GENES): 0 (if this expression is lower, the grade is 0)
  DEFB1 expression compared to control: 1.5
  DEFB1 grade (NUMBER OF GENES): 1 (If the expression is greater than 1.3 compared to the control, a grade of 11s given)
  DHFR NUMBER OF GENES grade: 0 (if this expression is lower, the grade is 0)
  EHF expression compared to control: 1.4
  EHF grade (NUMBER OF GENES): 1 (If the expression is greater than 1.3 compared to the control, a grade of 11s given)
  FABP4 expression compared to control: 1.2
  FABP4 grade (NUMBER OF GENES): 0 (if this expression is lower, the grade is 0)
  HSP27 expression compared to control: 0.9
  HSP27 grade (NUMBER OF GENES): 0 (if this expression is lower, the grade is 0)
  HSP90 NUMBER OF GENES grade: 1 (If the expression is greater than 1.3 compared to the control, a grade of 11s given)
  IL18 NUMBER OF GENES grade: 0 (if this expression is lower, the grade is 0)
  IVL expression compared to control: 1.9
  IVL grade (NUMBER OF GENES): 1 (If the expression is greater than 1.3 compared to the control, a grade of 11s given)
  KRT4 NUMBER OF GENES grade: 0 (if this expression is lower, the grade is 0)
  MELANA NUMBER OF GENES grade: 0 (if this expression is lower, the grade is 0)
  NGAL expression compared to control: 2.1
  NGAL grade (NUMBER OF GENES): 1 (If the expression is greater than 1.3 compared to the control, a grade of 11s given)
  P13 expression compared to control: 1.4
  P13 grade (NUMBER OF GENES): 1 (If the expression is greater than 1.3 compared to the control, a grade of 11s given)
  PDZK1iP1 NUMBER OF GENES grade: 0 (if this expression is lower, the grade is 0)
  SENS >1.3 (number of genes): 10
  SERPINB3 NUMBER OF GENES grade: 0 (if this expression is lower, the grade is 0)
  TOTAL SENS (number of genes): 10
  BRAK expression: 0.8
  DHFR expression: 0.9
  HSP90 expression: 1.3
  IL18 expression: 0.7
  KRT4 expression: 1.0
  MELANA expression: 0.6
  PDZK1iP1 expression: 1.0
  SERPINB3 expression: 1.1
[1]; 50%
  BRAK NUMBER OF GENES grade: 0 (if this expression is lower, the grade is 0)
  CTSS expression compared to control: 1.4
  CTSS grade (NUMBER OF GENES): 1 (If the expression is greater than 1.3 compared to the control, a grade of 11s given)
  CXCR1 expression compared to control: 2.6
  CXCR1 grade (NUMBER OF GENES): 1 (If the expression is greater than 1.3 compared to the control, a grade of 11s given)
  DAPK2 expression compared to control: 1.4
  DAPK2 grade (NUMBER OF GENES): 1 (If the expression is greater than 1.3 compared to the control, a grade of 11s given)
  DEFB1 expression compared to control: 2.1
  DEFB1 grade (NUMBER OF GENES): 1 (If the expression is greater than 1.3 compared to the control, a grade of 11s given)
  DHFR NUMBER OF GENES grade: 0 (if this expression is lower, the grade is 0)
  EHF expression compared to control: 2.0
  EHF grade (NUMBER OF GENES): 1 (If the expression is greater than 1.3 compared to the control, a grade of 11s given)
  FABP4 expression compared to control: 1.8
  FABP4 grade (NUMBER OF GENES): 1 (If the expression is greater than 1.3 compared to the control, a grade of 11s given)
  HSP27 expression compared to control: 1.2
  HSP27 grade (NUMBER OF GENES): 0 (if this expression is lower, the grade is 0)
  HSP90 NUMBER OF GENES grade: 1 (If the expression is greater than 1.3 compared to the control, a grade of 11s given)
  IL18 NUMBER OF GENES grade: 0 (if this expression is lower, the grade is 0)
  IVL expression compared to control: 2.8
  IVL grade (NUMBER OF GENES): 1 (If the expression is greater than 1.3 compared to the control, a grade of 11s given)
  KRT4 NUMBER OF GENES grade: 0 (if this expression is lower, the grade is 0)
  MELANA NUMBER OF GENES grade: 0 (if this expression is lower, the grade is 0)
  NGAL expression compared to control: 2.7
  NGAL grade (NUMBER OF GENES): 1 (If the expression is greater than 1.3 compared to the control, a grade of 11s given)
  P13 expression compared to control: 1.7
  P13 grade (NUMBER OF GENES): 1 (If the expression is greater than 1.3 compared to the control, a grade of 11s given)
  PDZK1iP1 NUMBER OF GENES grade: 0 (if this expression is lower, the grade is 0)
  SENS >1.3 (number of genes): 13
  SERPINB3 NUMBER OF GENES grade: 1 (If the expression is greater than 1.3 compared to the control, a grade of 11s given)
  TOTAL SENS (number of genes): 13
  BRAK expression: 0.6
  DHFR expression: 0.9
  HSP90 expression: 1.7
  IL18 expression: 0.8
  KRT4 expression: 1.2
  MELANA expression: 0.4
  PDZK1iP1 expression: 1.1
  SERPINB3 expression: 1.5
EPISKIN model; 0.1%
  sensitizing potential (conclusion): Sensitizing
EPISKIN model; 1%
  sensitizing potential (conclusion): Sensitizing
EPISKIN model; 10%
  sensitizing potential (conclusion): Sensitizing
EPISKIN model; 50%
  sensitizing potential (conclusion): Sensitizing
EPISKIN model; from successive dilutions
  sensitizing power (class): MODERATE
